From patent publication US12414990B2, “Use of HLA-A*11:01-restricted hepatitis B virus (HBV) peptides for identifying HBV-specific CD8+ T cells” (AGENCY FOR SCIENCE, TECHNOLOGY AND RESEARCH, priority 2019, dated 2025)

Tested on: HLA-A*11:01-restricted antigen-specific CD8+ T cells in patient's PBMC
Test: Highly multiplexed combinatorial pMHC tetramer staining with mass cytometry (epitope mapping, frequency of antigen-specific CD8+ T cells)
[1] = Immune Active (IA) CHB patients, patients with detected tetramer+ CD8+ T cells (frequency > 0.002%) / patients in the group, per epitope cluster
[2] = Immune Tolerant (IT) CHB patients, patients with detected tetramer+ CD8+ T cells (frequency > 0.002%) / patients in the group, per epitope cluster
[3] = Inactive Carrier (InA) CHB patients, patients with detected tetramer+ CD8+ T cells (frequency > 0.002%) / patients in the group, per epitope cluster
[4] = patients with detected epitope-specific CD8+ T cells / patients tested, Inactive Carrier (InA) group, Freq > 0.002%
[5] = patients with detected epitope-specific CD8+ T cells / patients tested, Immune Active (IA) group, Freq > 0.002%
[6] = patients with detected epitope-specific CD8+ T cells / patients tested, Immune Tolerant (IT) group, Freq > 0.002%
[7] = patients with detected epitope-specific CD8+ T cells / patients tested, acute resolved (R) group, Freq > 0.002%
[8] = Immune Tolerant (IT) patients, donors with tetramer+ CD8+ T cell frequency > 0.002% / donors tested
[9] = Acute resolved (R) patients, patients with detected tetramer+ CD8+ T cells (frequency > 0.002%) / patients in the group, per epitope cluster
[10] = Immune Active (IA) patients, donors with tetramer+ CD8+ T cell frequency > 0.002% / donors tested
[11] = Inactive Carrier (InA) patients, donors with tetramer+ CD8+ T cell frequency > 0.002% / donors tested
[12] = acute resolved (R) patients, donors with tetramer+ CD8+ T cell frequency > 0.002% / donors tested

Sequence: TVNHYFQTR
- Hits (Freq > 0.002%) IA [1]: 4/12
- Hits (Freq > 0.002%) IT [2]: 5/8
- Hits (Freq > 0.002%) InA [3]: 5/13

Sequence: GVWIRTPPAYR
- Hits (Freq > 0.002%) InA [4]: 1/13

Sequence: KVFVLGGCRHK
- Hits (Freq > 0.002%) IA [5]: 1/12
- Hits (Freq > 0.002%) IT [6]: 1/8
- Hits (Freq > 0.002%) R [7]: 2/12

Sequence: KTYGRKLHLY
- Hits (Freq > 0.002%) IT [8]: 1/8
- Average of hits (%) IT (Immune Tolerant (IT) patients, mean frequency of antigen-specific CD8+ T cells among hits): 0.002007%

Sequence: LTFGRETVLE
- Hits (Freq > 0.002%) InA [4]: 1/13
- Hits (Freq > 0.002%) R [7]: 1/12

Sequence: QTSERHGDK
- Hits (Freq > 0.002%) R [9]: 1/12
- Hits (Freq > 0.002%) InA [3]: 1/13

Sequence: RTTWSIHAK
- Hits (Freq > 0.002%) IA [5]: 5/12
- Hits (Freq > 0.002%) IT [6]: 2/8
- Hits (Freq > 0.002%) InA [4]: 3/13
- Hits (Freq > 0.002%) R [7]: 3/12

Sequence: SVLGPISGHVLK
- Hits (Freq > 0.002%) InA [4]: 2/13

Sequence: STNRQSGRK
- Hits (Freq > 0.002%) R [9]: 1/12
- Hits (Freq > 0.002%) IA [1]: 7/12
- Hits (Freq > 0.002%) IT [2]: 5/8
- Hits (Freq > 0.002%) InA [3]: 4/13

Sequence: RVTGGVFLVDK
- Hits (Freq > 0.002%) IA [10]: 1/12

Sequence: KSGAIKVLK
- Hits (Freq > 0.002%) InA [4]: 1/13

Sequence: SQIGAGVYK
- Hits (Freq > 0.002%) IA [5]: 3/12
- Hits (Freq > 0.002%) IT [6]: 1/8
- Hits (Freq > 0.002%) InA [4]: 2/13
- Hits (Freq > 0.002%) R [7]: 1/12

Sequence: STLPETAVVRR
- Hits (Freq > 0.002%) IA [10]: 4/12
- Hits (Freq > 0.002%) InA [11]: 7/13
- Hits (Freq > 0.002%) R [12]: 9/12

Sequence: TVRAFSRAYHHRINR
- Hits (Freq > 0.002%) R [7]: 1/12

Sequence: KLVGINMSKK
- Hits (Freq > 0.002%) InA [4]: 1/13

Sequence: ASCMGLIYNR
- Hits (Freq > 0.002%) IT [6]: 1/8
- Hits (Freq > 0.002%) InA [4]: 1/13
- Hits (Freq > 0.002%) R [7]: 1/12

Sequence: AGFFLLTK
- Hits (Freq > 0.002%) InA [3]: 1/13

Sequence: SSARSQSER
- Hits (Freq > 0.002%) InA [11]: 1/13

Sequence: LVFQTSER
- Hits (Freq > 0.002%) R [9]: 1/12
- Hits (Freq > 0.002%) InA [3]: 1/13

Sequence: PTYKAFLSK
- Hits (Freq > 0.002%) IA [10]: 2/12
- Hits (Freq > 0.002%) IT [8]: 1/8
- Hits (Freq > 0.002%) InA [11]: 2/13
- Hits (Freq > 0.002%) R [12]: 1/12

Sequence: VTKYLPLDK
- Hits (Freq > 0.002%) R [9]: 2/12
- Hits (Freq > 0.002%) IT [2]: 1/8
- Hits (Freq > 0.002%) InA [3]: 3/13

Sequence: RTQSPRRRR
- Hits (Freq > 0.002%) IA [5]: 6/12
- Hits (Freq > 0.002%) IT [6]: 1/8
- Hits (Freq > 0.002%) InA [4]: 5/13
- Hits (Freq > 0.002%) R [7]: 2/12

Sequence: MVSRLLLNR
- Hits (Freq > 0.002%) IA [5]: 1/12

Sequence: STVPCFNPK
- Hits (Freq > 0.002%) R [9]: 1/12

Sequence: RSQSPRRRRSK
- Hits (Freq > 0.002%) IT [6]: 8/8
- Hits (Freq > 0.002%) InA [4]: 6/13
- Hits (Freq > 0.002%) R [7]: 6/12

Sequence: VTGGVFLVDK
- Hits (Freq > 0.002%) IA [10]: 1/12

Sequence: TSGSPIIDK
- Hits (Freq > 0.002%) IT [6]: 1/8

Sequence: SVQPTFSVQR
- Hits (Freq > 0.002%) IA [5]: 3/12
- Hits (Freq > 0.002%) IT [6]: 2/8
- Hits (Freq > 0.002%) InA [4]: 4/13
- Hits (Freq > 0.002%) R [7]: 1/12

Sequence: LSYLHFRK
- Hits (Freq > 0.002%) R [9]: 2/12
- Hits (Freq > 0.002%) IA [1]: 4/12
- Hits (Freq > 0.002%) IT [2]: 3/8
- Hits (Freq > 0.002%) InA [3]: 1/13

Sequence: SSAGPCALR
- Hits (Freq > 0.002%) InA [11]: 2/13

Sequence: TVPCFNPK
- Hits (Freq > 0.002%) InA [3]: 1/13

Sequence: TSMFPSCCCTK
- Hits (Freq > 0.002%) IA [1]: 2/12
- Hits (Freq > 0.002%) IT [2]: 1/8
- Hits (Freq > 0.002%) InA [3]: 1/13

Sequence: HTLWKAGILYK
- Hits (Freq > 0.002%) R [9]: 2/12
- Hits (Freq > 0.002%) IA [1]: 4/12
- Hits (Freq > 0.002%) IT [2]: 1/8
- Hits (Freq > 0.002%) InA [3]: 1/13

Sequence: QQGSMASGK
- Hits (Freq > 0.002%) InA [3]: 1/13

Sequence: KTFVDLMRR
- Hits (Freq > 0.002%) IA [5]: 1/12

Sequence: MLLYKTYGRK
- Hits (Freq > 0.002%) InA [11]: 1/13

Sequence: RGNTRVSWPK
- Hits (Freq > 0.002%) IA [10]: 2/12
- Hits (Freq > 0.002%) IT [8]: 1/8
- Hits (Freq > 0.002%) InA [11]: 1/13
- Hits (Freq > 0.002%) R [12]: 1/12

Sequence: SFSFGGFTFK
- Hits (Freq > 0.002%) IA [5]: 2/12
- Hits (Freq > 0.002%) InA [4]: 2/13
- Hits (Freq > 0.002%) R [7]: 1/12

Sequence: TTSTGPCK
- Hits (Freq > 0.002%) R [9]: 1/12
- Hits (Freq > 0.002%) IA [1]: 1/12

Sequence: ATVQGQNLK
- Hits (Freq > 0.002%) IA [5]: 2/12
- Hits (Freq > 0.002%) IT [6]: 3/8
- Hits (Freq > 0.002%) InA [4]: 9/13
- Hits (Freq > 0.002%) R [7]: 4/12

Sequence: MATYGWNLVK
- Hits (Freq > 0.002%) IA [5]: 1/12
- Hits (Freq > 0.002%) InA [4]: 1/13

Sequence: RIINNQHR
- Hits (Freq > 0.002%) IA [10]: 1/12
- Hits (Freq > 0.002%) R [12]: 1/12

Sequence: LVYRPTTGR
- Hits (Freq > 0.002%) IA [10]: 1/12
- Hits (Freq > 0.002%) InA [11]: 1/13

Sequence: AMGDAGGYK
- Hits (Freq > 0.002%) InA [4]: 1/13

Sequence: GILPRSSVGPR
- Hits (Freq > 0.002%) IA [1]: 1/12
- Hits (Freq > 0.002%) InA [3]: 3/13

Sequence: AVVRRRCRSPR
- Hits (Freq > 0.002%) IA [10]: 6/12
- Hits (Freq > 0.002%) IT [8]: 3/8
- Hits (Freq > 0.002%) InA [11]: 2/13
- Hits (Freq > 0.002%) R [12]: 1/12

Sequence: TTDLEAYFK
- Hits (Freq > 0.002%) IA [5]: 1/12
- Hits (Freq > 0.002%) InA [4]: 3/13
- Hits (Freq > 0.002%) R [7]: 1/12

Sequence: VSLMLLYK
- Hits (Freq > 0.002%) R [12]: 1/12

Sequence: NLNVSIPWTHK
- Hits (Freq > 0.002%) R [9]: 1/12
- Hits (Freq > 0.002%) IA [1]: 8/12
- Hits (Freq > 0.002%) IT [2]: 4/8
- Hits (Freq > 0.002%) InA [3]: 3/13

Sequence: TVMDIISRR
- Hits (Freq > 0.002%) IT [6]: 2/8

Sequence: ATVLMGLGK
- Hits (Freq > 0.002%) IA [5]: 1/12
- Hits (Freq > 0.002%) IT [6]: 1/8
- Hits (Freq > 0.002%) InA [4]: 1/13

Sequence: KTFDSEYVK
- Hits (Freq > 0.002%) R [7]: 1/12

Sequence: IVQKIKMCFRK
- Hits (Freq > 0.002%) IA [10]: 1/12
- Hits (Freq > 0.002%) IT [8]: 1/8
- Hits (Freq > 0.002%) R [12]: 2/12

Sequence: GTLPQEHIVLK
- Hits (Freq > 0.002%) R [12]: 1/12

Sequence: MSMTDLEAYFK
- Hits (Freq > 0.002%) IA [5]: 1/12
- Hits (Freq > 0.002%) R [7]: 1/12

Sequence: YVSLLLLYK
- Hits (Freq > 0.002%) IA [10]: 2/12
- Hits (Freq > 0.002%) IT [8]: 2/8
- Hits (Freq > 0.002%) InA [11]: 3/13
- Hits (Freq > 0.002%) R [12]: 1/12

Sequence: TTKRDLGMSK
- Hits (Freq > 0.002%) IA [5]: 2/12
- Hits (Freq > 0.002%) IT [6]: 1/8

Sequence: VSAISSILSK
- Hits (Freq > 0.002%) IA [1]: 1/12

Sequence: GSCIQSQLRK
- Hits (Freq > 0.002%) IT [2]: 1/8

Sequence: SVQRNLPFER
- Hits (Freq > 0.002%) IA [5]: 4/12
- Hits (Freq > 0.002%) IT [6]: 4/8
- Hits (Freq > 0.002%) InA [4]: 6/13
- Hits (Freq > 0.002%) R [7]: 3/12

Sequence: STISSILSK
- Hits (Freq > 0.002%) IA [1]: 1/12
- Hits (Freq > 0.002%) InA [3]: 1/13

Sequence: CSCPTVQASK
- Hits (Freq > 0.002%) InA [4]: 2/13

Sequence: QSSGILSR
- Hits (Freq > 0.002%) R [9]: 1/12

Sequence: SVVRRAFPH
- Hits (Freq > 0.002%) IA [10]: 3/12
- Hits (Freq > 0.002%) IT [8]: 1/8
- Hits (Freq > 0.002%) InA [11]: 2/13

Sequence: LVVDFSQFSR
- Hits (Freq > 0.002%) IA [10]: 9/12
- Hits (Freq > 0.002%) IT [8]: 5/8
- Hits (Freq > 0.002%) InA [11]: 9/13
- Hits (Freq > 0.002%) R [12]: 9/12

Sequence: YVNVNMGLK
- Hits (Freq > 0.002%) IA [5]: 1/12
- Hits (Freq > 0.002%) R [7]: 1/12

Sequence: PSFPHIHLK
- Hits (Freq > 0.002%) R [9]: 1/12
- Hits (Freq > 0.002%) IT [2]: 1/8

Sequence: TVNETRRLK
- Hits (Freq > 0.002%) IA [1]: 2/12
- Hits (Freq > 0.002%) IT [2]: 1/8
- Hits (Freq > 0.002%) InA [3]: 2/13

Sequence: TVNAHQVLPK
- Hits (Freq > 0.002%) IA [10]: 3/13
- Hits (Freq > 0.002%) IT [8]: 1/12
- Hits (Freq > 0.002%) R [12]: 2/12

Sequence: STQVSWPK
- Hits (Freq > 0.002%) IT [8]: 2/8
- Hits (Freq > 0.002%) R [12]: 1/12

Sequence: KIKMCFRK
- Hits (Freq > 0.002%) IT [8]: 2/8
- Hits (Freq > 0.002%) R [12]: 1/12

Sequence: GTSGSPIVNR
- Hits (Freq > 0.002%) IA [5]: 4/12
- Hits (Freq > 0.002%) IT [6]: 5/8
- Hits (Freq > 0.002%) InA [4]: 4/13
- Hits (Freq > 0.002%) R [7]: 4/12

Sequence: SSCSSCPLSK
- Hits (Freq > 0.002%) IT [6]: 6/8
- Hits (Freq > 0.002%) R [7]: 8/12
